SHP2% degradation data for eleven compounds are collected here from US20260144788A1, “COMPOUND FOR SHP2 PROTEIN DEGRADATION AND MEDICAL USES THEREOF” (UBIX THERAPEUTICS, INC., priority 2022, published 2026).

The target of the test is T1, SHP2 protein (Homo sapiens, UniProt Q06124).
T1 sequence (Q06124 1-593): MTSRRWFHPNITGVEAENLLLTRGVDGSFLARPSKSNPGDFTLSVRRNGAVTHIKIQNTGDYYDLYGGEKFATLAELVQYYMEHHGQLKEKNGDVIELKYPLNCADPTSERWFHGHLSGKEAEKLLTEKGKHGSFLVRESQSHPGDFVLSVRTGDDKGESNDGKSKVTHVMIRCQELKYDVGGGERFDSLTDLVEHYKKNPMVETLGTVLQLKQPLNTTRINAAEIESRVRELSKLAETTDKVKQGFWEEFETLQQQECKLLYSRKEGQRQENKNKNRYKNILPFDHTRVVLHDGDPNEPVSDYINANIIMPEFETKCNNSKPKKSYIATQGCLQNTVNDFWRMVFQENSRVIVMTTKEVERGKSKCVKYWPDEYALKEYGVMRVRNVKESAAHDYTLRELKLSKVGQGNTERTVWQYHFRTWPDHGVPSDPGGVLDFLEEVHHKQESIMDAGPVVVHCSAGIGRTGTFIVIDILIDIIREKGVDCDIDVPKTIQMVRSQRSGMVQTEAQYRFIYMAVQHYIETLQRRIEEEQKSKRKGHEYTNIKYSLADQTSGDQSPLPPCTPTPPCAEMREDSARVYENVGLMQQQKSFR
In words: Measurement of SHP2 protein degradation in MV-4-11 cells (western blotting). The class given is cell-based. Details: endogenous in cells. Particulars: harvested after 24 hours. Summed up: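 MV-4-11 cells in IMDM/5% FBS were exposed to compound at final 0.01, 0.1, 1 μM or 0.001, 0.01, 0.1 μM for 24 h, DMSO as negative control. BCA-normalised lysates were immunoblotted for SHP2 with GAPDH as loading control, read on LI-COR Odyssey.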

Regarding `Cc1ncsc1-c1ccc(CNC(=O)[C@@H]2C[C@@H](O)CN2C(=O)[C@@H](NC(=O)C2(F)CC2)C(C)(C)C)c(O[C@H]2CC[C@H](C(=O)N3CCN(c4nccc(Sc5cnc(N6CCC(C)(CN)CC6)cn5)c4Cl)CC3)CC2)c1` [Example 26, (2S,4R)—N-(2-(((1R,4S)-4-(4-(4-((5-(4-(aminomethyl)-4-methylpiperidin-1-yl)pyrazin-2-yl)thio)-3-chloropyridin-2-yl)piperazine-1-carbonyl)cyclohexyl)oxy)-4-(4-methylthiazol-5-yl)benzyl)-1-((S)-2-(1-fluorocyclopropane-1-carboxamido)-3,3-dimethylbutanoyl)-4-hydroxypyrrolidine-2-carboxamide], the SHP2% degradation came out at 52.3% (0.01 μM) and 96.1% (0.1 μM).
For `Cc1ncsc1-c1ccc(CNC(=O)[C@@H]2C[C@@H](O)CN2C(=O)[C@@H](NC(=O)C2(F)CC2)C(C)(C)C)c(OCCN2CCN(C(=O)C3CCN(c4nccc(Sc5cnc(N6CCC(C)(CN)CC6)cn5)c4Cl)CC3)CC2)c1` [Example 54, (2S,4R)—N-(2-(2-(4-(1-(4-((5-(4-(aminomethyl)-4-methylpiperidin-1-yl)pyrazin-2-yl)thio)-3-chloropyridin-2-yl)piperidine-4-carbonyl)piperazin-1-yl)ethoxy)-4-(4-methylthiazol-5-yl)benzyl)-1-((S)-2-(1-fluorocyclopropane-1-carboxamido)-3,3-dimethylbutanoyl)-4-hydroxypyrrolidine-2-carboxamide], the SHP2% degradation by setting is: (0.01 μM) 69.4%; (0.1 μM) 99.3%.
In the same order, the values of `Cc1ncsc1-c1ccc(CNC(=O)[C@@H]2C[C@@H](O)CN2C(=O)[C@@H](NC(=O)C2(F)CC2)C(C)(C)C)c(OCCC2CCN(C(=O)C3CCN(c4nccc(Sc5cnc(N6CCC(C)(CN)CC6)cn5)c4Cl)CC3)CC2)c1` [Example 56, (2S,4R)—N-(2-(2-(1-(1-(4-((5-(4-(aminomethyl)-4-methylpiperidin-1-yl)pyrazin-2-yl)thio)-3-chloropyridin-2-yl)piperidine-4-carbonyl)piperidin-4-yl)ethoxy)-4-(4-methylthiazol-5-yl)benzyl)-1-((S)-2-(1-fluorocyclopropane-1-carboxamido)-3,3-dimethylbutanoyl)-4-hydroxypyrrolidine-2-carboxamide] are 55.8% and 98.6%.
On to `CC(=O)N[C@H](C(=O)N1C[C@H](O)C[C@H]1C(=O)NCc1ccc(-c2scnc2C)cc1OC1CCN(C(=O)C2CCN(c3nccc(Sc4cnc(N5CCC(C)(CN)CC5)cn4)c3Cl)CC2)CC1)C(C)(C)C` [Example 75, (2S,4R)-1-((S)-2-acetamido-3,3-dimethylbutanoyl)-N-(2-((1-(1-(4-((5-(4-(aminomethyl)-4-methylpiperidin-1-yl)pyrazin-2-yl)thio)-3-chloropyridin-2-yl)piperidine-4-carbonyl)piperidin-4-yl)oxy)-4-(4-methylthiazol-5-yl)benzyl)-4-hydroxypyrrolidine-2-carboxamide], for which the SHP2% degradation amounted to 97.0% (0.01 μM) and 99.3% (0.1 μM).
In the case of `Cc1ncsc1-c1ccc(CNC(=O)[C@@H]2C[C@@H](O)CN2C(=O)[C@@H](NC(=O)C2(F)CC2)C(C)(C)C)c(O[C@H]2CC[C@H](CN3CCC(Nc4cccc(Sc5cnc(N6CCC(C)(CN)CC6)cn5)c4Cl)CC3)CC2)c1` [Example 6, (2S,4R)—N-(2-(((1R,4S)-4-((4-((3-((5-(4-(aminomethyl)-4-methylpiperidin-1-yl)pyrazin-2-yl)thio)-2-chlorophenyl)amino)piperidin-1-yl)methyl)cyclohexyl)oxy)-4-(4-methylthiazol-5-yl)benzyl)-1-((S)-2-(1-fluorocyclopropane-1-carboxamido)-3,3-dimethylbutanoyl)-4-hydroxypyrrolidine-2-carboxamide], the SHP2% degradation was 14.8% (0.01 μM) and 56.9% (0.1 μM).
Consider `Cc1ncsc1-c1ccc(CNC(=O)[C@@H]2C[C@@H](O)CN2C(=O)[C@@H](NC(=O)C2(F)CC2)C(C)(C)C)c(OCCN2CCN(CC3CCN(c4nccc(Sc5cnc(N6CCC(C)(CN)CC6)cn5)c4Cl)CC3)CC2)c1` [Example 8, (2S,4R)—N-(2-(2-(4-((1-(4-((5-(4-(aminomethyl)-4-methylpiperidin-1-yl)pyrazin-2-yl)thio)-3-chloropyridin-2-yl)piperidin-4-yl)methyl)piperazin-1-yl)ethoxy)-4-(4-methylthiazol-5-yl)benzyl)-1-((S)-2-(1-fluorocyclopropane-1-carboxamido)-3,3-dimethylbutanoyl)-4-hydroxypyrrolidine-2-carboxamide], for which the SHP2% degradation (0.01 μM) is on record as 11.7% and the SHP2% degradation (0.1 μM) came to 81.9%.
`CC(=O)N[C@H](C(=O)N1C[C@H](O)C[C@H]1C(=O)NCc1ccc(-c2scnc2C)cc1O[C@H]1CC[C@H](C(=O)N2CC(Nc3nccc(Sc4cnc(N5CCC(C)(CN)CC5)cn4)c3Cl)C2)CC1)C(C)(C)C` [Example 38, (2S,4R)-1-((S)-2-acetamido-3,3-dimethylbutanoyl)-N-(2-(((1R,4S)-4-(3-((4-((5-(4-(aminomethyl)-4-methylpiperidin-1-yl)pyrazin-2-yl)thio)-3-chloropyridin-2-yl)amino)azetidine-1-carbonyl)cyclohexyl)oxy)-4-(4-methylthiazol-5-yl)benzyl)-4-hydroxypyrrolidine-2-carboxamide]: the SHP2% degradation stood at 97.7% (0.01 μM) and 99.5% (0.1 μM).
Turning to `CC(=O)N[C@H](C(=O)N1C[C@H](O)C[C@H]1C(=O)NCc1ccc(-c2scnc2C)cc1OC1CCN(C(=O)[C@H]2C[C@@H](Nc3nccc(Sc4cnc(N5CCC(C)(CN)CC5)cn4)c3Cl)C2)CC1)C(C)(C)C` [Example 74, (2S,4R)-1-((S)-2-acetamido-3,3-dimethylbutanoyl)-N-(2-((1-((1S,3R)-3-((4-((5-(4-(aminomethyl)-4-methylpiperidin-1-yl)pyrazin-2-yl)thio)-3-chloropyridin-2-yl)amino)cyclobutanecarbonyl)piperidin-4-yl)oxy)-4-(4-methylthiazol-5-yl)benzyl)-4-hydroxypyrrolidine-2-carboxamide], the SHP2% degradation is, setting by setting: (0.01 μM) 97.0%; (0.1 μM) 99.8%.
For the compound `Cc1ncsc1-c1ccc(CNC(=O)[C@@H]2C[C@@H](O)CN2C(=O)[C@@H](NC(=O)C2(F)CC2)C(C)(C)C)c(OC2CCN(C(=O)C3(C)CCN(c4nccc(Sc5cnc(N6CCC(C)(CN)CC6)cn5)c4Cl)CC3)CC2)c1` [Example 68, (2S,4R)—N-(2-((1-(1-(4-((5-(4-(aminomethyl)-4-methylpiperidin-1-yl)pyrazin-2-yl)thio)-3-chloropyridin-2-yl)-4-methylpiperidine-4-carbonyl)piperidin-4-yl)oxy)-4-(4-methylthiazol-5-yl)benzyl)-1-((S)-2-(1-fluorocyclopropane-1-carboxamido)-3,3-dimethylbutanoyl)-4-hydroxypyrrolidine-2-carboxamide], the SHP2% degradation (0.01 μM) is reported as −22.1% and the SHP2% degradation (0.1 μM) amounted to 95.7%.
As for `Cc1ncsc1-c1ccc([C@H](C)NC(=O)[C@@H]2C[C@@H](O)CN2C(=O)[C@@H](NC(=O)C2(F)CC2)C(C)(C)C)c(OC2CCN(C(=O)C3CCN(c4nccc(Sc5cnc(N6CCC(C)(CN)CC6)cn5)c4Cl)CC3)CC2)c1` [Example 86, (2S,4R)—N—((S)-1-(2-((1-(1-(4-((5-(4-(aminomethyl)-4-methylpiperidin-1-yl)pyrazin-2-yl)thio)-3-chloropyridin-2-yl)piperidine-4-carbonyl)piperidin-4-yl)oxy)-4-(4-methylthiazol-5-yl)phenyl)ethyl)-1-((S)-2-(1-fluorocyclopropane-1-carboxamido)-3,3-dimethylbutanoyl)-4-hydroxypyrrolidine-2-carboxamide], the SHP2% degradation is, setting by setting: (0.01 μM) 81.9%; (0.1 μM) 99.9%.
Regarding `Cc1ncsc1-c1ccc(CNC(=O)[C@@H]2C[C@@H](O)CN2C(=O)[C@@H](NC(=O)C2(F)CC2)C(C)(C)C)c(O[C@H]2CC[C@H](C(=O)N3CC(Nc4cccc(Sc5cnc(N6CCC7(CC6)CO[C@@H](C)[C@H]7N)cn5)c4Cl)C3)CC2)c1` [Example 13, (2S,4R)—N-(2-(((1R,4S)-4-(3-((3-((5-((3S,4S)-4-amino-3-methyl-2-oxa-8-azaspiro[4.5]decan-8-yl)pyrazin-2-yl)thio)-2-chlorophenyl)amino)azetidine-1-carbonyl)cyclohexyl)oxy)-4-(4-methylthiazol-5-yl)benzyl)-1-((S)-2-(1-fluorocyclopropane-1-carboxamido)-3,3-dimethylbutanoyl)-4-hydroxypyrrolidine-2-carboxamide], the SHP2% degradation was 93.8% (0.01 μM) and 99.5% (0.1 μM).
